Measured values from paper PMC8041433 (Environmental Health Perspectives, 2021).
Where “and” joins values, the source holds several entries; their conditions need not be identical. Identical values can stand only once. Counter-ions that a name gives are not always drawn. Like-named read-outs stand apart in the source and are kept apart here.

Experiments:
recombinant human AChE [1] = molecular target: T1, recombinant human AChE (Homo sapiens, UniProt P22303); assay: biochemical; assay type: biochemical; details: for AC50: AC50 (uM)
T1 sequence (P22303 32-614): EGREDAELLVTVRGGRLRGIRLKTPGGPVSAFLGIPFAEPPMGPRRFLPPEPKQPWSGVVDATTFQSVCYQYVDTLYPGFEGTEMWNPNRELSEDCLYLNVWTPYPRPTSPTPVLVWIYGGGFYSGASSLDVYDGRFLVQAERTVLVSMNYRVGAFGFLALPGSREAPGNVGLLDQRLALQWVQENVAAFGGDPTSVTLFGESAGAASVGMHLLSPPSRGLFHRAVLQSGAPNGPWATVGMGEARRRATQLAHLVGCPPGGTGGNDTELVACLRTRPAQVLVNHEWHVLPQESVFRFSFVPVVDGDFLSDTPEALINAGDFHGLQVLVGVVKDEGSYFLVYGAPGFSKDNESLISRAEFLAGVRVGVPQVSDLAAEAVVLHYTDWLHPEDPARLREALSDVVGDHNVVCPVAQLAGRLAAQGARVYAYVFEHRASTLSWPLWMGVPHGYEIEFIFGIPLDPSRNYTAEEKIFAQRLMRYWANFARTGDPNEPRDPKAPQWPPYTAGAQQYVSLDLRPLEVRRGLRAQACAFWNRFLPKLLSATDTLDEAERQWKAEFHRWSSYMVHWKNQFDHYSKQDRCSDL

recombinant human AChE [2] = molecular target: T1, recombinant human AChE; assay: biochemical
[3] = molecular target: AChE in neural stem cell spheroids (Homo sapiens, UniProt P22303); assay: cell-based; details: for IC50: potency (IC50)
Sequence of AChE in neural stem cell spheroids (P22303 32-614): as above

AChE in SH-SY5Y cells = AChE in SH-SY5Y cells (Homo sapiens, UniProt P22303); assay: cell-based
Sequence of AChE in SH-SY5Y cells (P22303 32-614): as above

recombinant human AChE [4] = molecular target: T1, recombinant human AChE
recombinant human AChE [5] = molecular target: T1, recombinant human AChE; assay: biochemical; remark: listed apart in the source
[6] = molecular target: AChE in SH-SY5Y spheroids (Homo sapiens, UniProt P22303); assay: cell-based; details: potency (IC50)
Sequence of AChE in SH-SY5Y spheroids (P22303 32-614): as above

recombinant human AChE [7] = molecular target: T1, recombinant human AChE; assay: biochemical; remark: listed apart in the source
[8] = molecular target: AChE in neural stem cells (Homo sapiens, UniProt P22303); assay: cell-based
Sequence of AChE in neural stem cells (P22303 32-614): as above

[9] = potency (IC50), Enzyme with microsomes
[10] = Neural stem cell spheroid (24 h)
[11] = Neural stem cell spheroid (48 h)
[12] = potency (IC50), SH-SY5Y cells monolayer
For IR or R in this document: key: Reversible (R); Irreversible (IR); ND, not detected in enzyme-based AChE inhibition assay from current study.

| Compound | IC50 (recombinant human AChE [2]; [9]) | IC50 [3, 10] | IC50 [3, 11] | CC-v2 (curve classes) (AChE in SH-SY5Y cells) | IC50 (AChE in SH-SY5Y cells; IC50 (uM)) | IC50 (AChE in SH-SY5Y cells; [12]) | CC-v2 (curve classes) (recombinant human AChE [4]) | Efficacy (recombinant human AChE [4]) | CC-v2 (curve classes) (recombinant human AChE [5]) | Efficacy (recombinant human AChE [5]) | IC50 (recombinant human AChE [5]; potency (IC50), Enzyme) | IC50 ([6]; SH-SY5Y spheroids (24 h)) | IC50 ([6]; SH-SY5Y spheroids (48 h)) | IC50 (recombinant human AChE [7]) | IC50 [8] | IR or R (recombinant human AChE [1]) | AC50 (recombinant human AChE [1]) | IC50 (recombinant human AChE [2]; IC50 (uM)) | also measured |
| --- | --- | --- | --- | --- | --- | --- | --- | --- | --- | --- | --- | --- | --- | --- | --- | --- | --- | --- | --- |
| CCOC(=O)c1cn2nc(OP(=S)(OCC)OCC)cc2nc1C [Pyrazophos] | 7.89 µM | 2.46 µM | 4.46 µM | -2.1 | 35.6 µM and 71 µM and 79.6 µM | 46.2 µM | -1.1 | -98.116 | -3 | -45.459 | 49.8 µM | 29.7 µM | 46.2 µM | 85.3 ± 5.56 µM | 16.4 µM |  |  |  | AC50 (recombinant human AChE [1]; activity_60): 55.9 µM and 62.7 µM |
| CCN1CCCC1CNC(=O)c1cc(S(=O)(=O)CC)c(N)cc1OC (stereo not drawn) [Amisulpride, reference compound] | 21.8 µM |  | 12.1 µM |  | 21.9 µM and 34.7 µM and 38.9 µM | 30.7 µM | -2.4 | -30.734 | -2.2 | -62.971 | 14.3 µM | 11.1 µM | 28.6 µM | 24.3 µM | 17.2 µM | R | 17.2 µM (2×) and 6.85 µM and 19.3 µM (2×) and 3.43 µM and 15.3 µM and 21.7 µM | 38.9 µM | potency (IC50), Neural stem cell spheroid (24 h) [3]: Inactive; IC50 (recombinant human AChE [5]; IC50 (uM)): 15.5 µM |
| CCCCN(CCCC)SN(C)C(=O)Oc1cccc2c1OC(C)(C)C2 [Carbosulfan] | 0.44 µM | 5.25 µM | 8.89 µM | -1.1 | 0.159 µM and 0.809 µM and 0.126 µM and 1.14 µM and 0.224 µM and 0.573 µM | 3.23 µM | -1.1 |  | -1.1 |  | 1.67 µM | 0.46 µM | 0.68 µM | 1.36 ± 0.19 µM | 10.9 µM | R | 993 nM (3×) and 1.11 µM and 885 nM | 3.56 µM and 0.573 µM |  |
| CCOC(=O)CCN(SN(C)C(=O)Oc1cccc2c1OC(C)(C)C2)C(C)C [Benfuracarb] | 1.4 µM | 12.1 µM | 12.6 µM | -1.1 | 0.252 µM and 0.356 µM and 0.0448 µM | 1.25 µM | -1.1 | -96.321 | -1.1 | -95.401 | 4.97 µM | 1.76 µM | 0.84 µM | 1.85 ± 0.24 µM | 7.67 µM |  | 0.885 µM and 0.703 µM and 0.789 µM and 1.25 µM and 0.993 µM and 0.627 µM and 0.444 µM and 0.314 µM and 0.498 µM |  |  |
| CCCSP(=O)(OCC)Oc1ccc(Br)cc1Cl (stereo not drawn) [Profenofos] | 3.43 µM | 0.2 ± 0.09 µM | 0.78 µM | -1.1 | 6.88 µM and 5.46 µM and 7.72 µM | 3.71 ± 0.24 µM | -1.1 | -79.632 | -1.1 | -92.505 | 3.85 µM | 2.57 ± 2.21 µM | 2.89 ± 0.65 µM | 5.25 ± 0.34 µM | 1.05 ± 0.14 µM |  |  | 2.74 µM | AC50 (recombinant human AChE [1]; activity_5): 10.9 µM and 17.2 µM and 15.3 µM; AC50 (recombinant human AChE [1]; activity_10): 12.2 µM and 15.3 µM; AC50 (recombinant human AChE [1]; activity_60): 6.85 µM and 7.69 µM and 13.7 µM; IC50 (recombinant human AChE [5]; IC50 (uM)): 3.87 µM |
| CCCCSP(=O)(SCCCC)SCCCC [Tribufos] | 3.66 µM | 31.4 µM | 14 µM | -2.2 and -1.2 | 28.3 µM and 31 µM and 17.8 µM and 27.6 µM and 15.9 µM and 34.8 µM | 15.3 µM | -1.1 |  | -2.2 and 4 |  | 35.3 µM | 12.2 µM | 12 µM | 25.1 ± 2.88 µM | 39.8 µM |  | 88.5 µM | 5.02 µM and 5.51 µM | IC50 (recombinant human AChE [5]; read-out: IC50): 35.6 µM |
| CCOP(=S)(OCC)SC(CCl)N1C(=O)c2ccccc2C1=O (stereo not drawn) [Dialifor] | 2.69 µM | 9.74 µM | 20.1 µM | -2.1 | 31.7 µM | 14.6 µM | -1.1 | -102.338 | -2.1 | -100.017 | 41.1 µM | 25.7 µM | 15.7 µM | 28.1 ± 3.23 µM | 15.2 µM |  |  |  | reversibility of AChE inhibition (result in words) (recombinant human AChE [1]): irreversibility |
| CCOP(=S)(OCC)O/N=C(\C#N)c1ccccc1 [Phoxim] | 0.67 µM | 0.33 µM | 0.4 µM | -2.1 | 17.4 µM and 63.3 µM and 30.9 µM and 71 µM and 34.7 µM | 20.9 µM | -1.1 |  | -2.2 and -2.1 |  | 23.4 µM | 13.3 µM | 12.9 µM | 22 ± 4.1 µM | 3.18 µM |  |  |  | AC50 (recombinant human AChE [1]; activity_5): 27.3 µM and 24.3 µM; AC50 (recombinant human AChE [1]; activity_10): 30.6 µM and 24.3 µM; AC50 (recombinant human AChE [1]; activity_60): 21.7 µM and 19.3 µM and 24.3 µM |
| CNC(=O)Oc1cccc2c1OC(C)(C)C2 [Carbofuran] | 0.22 ± 0.04 µM | 2.44 ± 0.61 µM | 4.82 ± 0.66 µM | -1.1 | 0.0894 µM and 0.725 µM and 0.647 µM and 0.1 µM and 0.458 µM | 0.29 ± 0.05 µM | -1.1 |  | -1.1 |  | 0.09 µM | 0.64 ± 0.97 µM | 0.27 ± 0.05 µM | 0.23 ± 0.03 µM | 2.19 ± 0.61 µM |  | 993 nM (2×) and 1.11 µM (2×) and 885 nM and 125 nM and 314 nM and 157 nM |  |  |
| O=C(Nc1cccc(C2=NCCN2)c1)Nc1cccc(C2=NCCN2)c1 [Imidocarb dipropionate, reference compound] | 27.6 ± 5.16 µM | 19.4 ± 2.22 µM | 19.3 µM | -1.1 | 3.79 µM and 4.25 µM | 5.07 ± 0.64 µM | 4 | 0 | -2.1 | -76.607 | 18.5 ± 10.1 µM | 6.56 ± 6.21 µM | 7.41 ± 0.48 µM | 25.7 ± 5.81 µM | 19.3 µM | R | 15.3 µM (2×) and 17.2 µM and 19.3 µM and 10.9 µM and 13.7 µM and 21.7 µM and 12.2 µM |  | IC50 (recombinant human AChE [5]; IC50 (uM)): 10.7 µM |
| CCCCOc1ccc(C(=O)CCN2CCCCC2)cc1 [Dyclonine HCl, reference compound] | 31 ± 6.49 µM | 16.3 ± 7.64 µM | 9.18 ± 9.47 µM |  |  | 20.2 ± 2.57 µM |  |  |  |  | 20.9 ± 1.36 µM | 17.4 ± 3.65 µM | 23.5 ± 3.24 µM | 26.8 ± 10.1 µM | 21.8 ± 2.5 µM | R | 27.3 µM (3×) and 30.6 µM (3×) and 19.3 µM and 34.3 µM |  |  |
